Experimental data published in ChEMBL document CHEMBL5331067, “Disubstituted pyrimidine-5-carboxamide derivatives as novel HIV-1 NNRTIs: Crystallographic overlay-based molecular design, synthesis, and biological evaluation” (Eur J Med Chem, 2023).

What was measured:
[1] = (§1) Fold resistance, ratio of EC50 for antiviral activity against NNRTI-resistant HIV-1 harboring F227L/V106A double mutant infected in human MT4 cells assessed as virus-induced cytopathicity to EC50 for antiviral activity against HIV-1 IIIB infected in human MT4 cells assessed as reduction in virus induced cytopathic effect; format: functional
[2] = system: Human immunodeficiency virus 1; assay: Antiviral activity against NNRTI-resistant HIV-1 harboring Y181C mutant infected in human MT4 cells assessed as virus-induced cytopathicity incubated for 5 days by MTT assay; format: functional, organism-based; settings: Human immunodeficiency virus 1, MT4, 120 h
[3] = Cytotoxicity against human MT4 cells assessed as cell growth inhibition incubated for 5 days by MTT assay; format: toxicity, cell-based; settings: time 5 day
[4] = system: Human immunodeficiency virus 1; assay: Antiviral activity against NNRTI-resistant HIV-1 harboring L100I mutant infected in human MT4 cells assessed as virus-induced cytopathicity incubated for 5 days by MTT assay; format: functional, organism-based; settings: Human immunodeficiency virus 1, MT4, 120 h
[5] = as §1, with “L100I” for “F227L/V106A double”; format: functional
[6] = Selectivity index, ratio of CC50 for cytotoxicity against human MT4 cells assessed as reduction in cell viability to EC50 for antiviral activity against NNRTI-resistant HIV-1 harboring E138K mutant infected in human MT4 cells; format: toxicity, cell-based; settings: read-out: Ratio CC50/EC50
[7] = system: Human immunodeficiency virus 1; assay: Antiviral activity against NNRTI-resistant HIV-1 harboring K103N mutant infected in human MT4 cells assessed as virus-induced cytopathicity incubated for 5 days by MTT assay; format: functional, organism-based; settings: Human immunodeficiency virus 1, MT4, 120 h
[8] = Selectivity index, ratio of CC50 for cytotoxicity against human MT4 cells assessed as reduction in cell viability to EC50 for antiviral activity against NNRTI-resistant HIV-1 harboring Y181C mutant infected in human MT4 cells; format: toxicity, cell-based; settings: read-out: Ratio CC50/EC50
[9] = system: Human immunodeficiency virus 1; assay: Antiviral activity against NNRTI-resistant HIV-1 harboring F227L/V106A double mutant infected in human MT4 cells assessed as virus-induced cytopathicity incubated for 5 days by MTT assay; format: functional, organism-based; settings: Human immunodeficiency virus 1, MT4, 120 h
[10] = system: Human immunodeficiency virus 1; assay: Antiviral activity against HIV-1 RES056 infected in human MT4 cells assessed as reduction in virus induced cytopathic effect incubated for 5 days by MTT assay; format: functional, organism-based; settings: Human immunodeficiency virus 1, RES056, MT4, 120 h
[11] = Selectivity index, ratio of CC50 for cytotoxicity against human MT4 cells assessed as reduction in cell viability to EC50 for antiviral activity against NNRTI-resistant HIV-1 harboring K103N mutant infected in human MT4 cells; format: toxicity, cell-based; settings: read-out: Ratio CC50/EC50
[12] = as §1, with “RES056” for “IIIB”; format: functional
[13] = Selectivity index, ratio of CC50 for cytotoxicity against human MT4 cells assessed as reduction in cell viability to EC50 for antiviral activity against HIV-1 IIIB infected in human MT4 cells assessed as reduction in virus induced cytopathic effect; format: toxicity, cell-based; settings: read-out: Ratio CC50/EC50
[14] = Selectivity index, ratio of CC50 for cytotoxicity against human MT4 cells assessed as reduction in cell viability to EC50 for antiviral activity against NNRTI-resistant HIV-1 harboring F227L/V106A double mutant infected in human MT4 cells; format: toxicity, cell-based; settings: read-out: Ratio CC50/EC50
[15] = as §1, with “K103N” for “F227L/V106A double”; format: functional
[16] = as §1, with “E138K” for “F227L/V106A double”; format: functional
[17] = system: Human immunodeficiency virus 1; assay: Antiviral activity against NNRTI-resistant HIV-1 harboring E138K mutant infected in human MT4 cells assessed as virus-induced cytopathicity incubated for 5 days by MTT assay; format: functional, organism-based; settings: Human immunodeficiency virus 1, MT4, 120 h
[18] = Selectivity index, ratio of CC50 for cytotoxicity against human MT4 cells assessed as reduction in cell viability to EC50 for antiviral activity against NNRTI-resistant HIV-1 harboring L100I mutant infected in human MT4 cells; format: toxicity, cell-based; settings: read-out: Ratio CC50/EC50
[19] = system: Human immunodeficiency virus 1; assay: Antiviral activity against NNRTI-resistant HIV-1 harboring Y188L mutant infected in human MT4 cells assessed as virus-induced cytopathicity incubated for 5 days by MTT assay; format: functional, organism-based; settings: Human immunodeficiency virus 1, MT4, 120 h
[20] = Selectivity index, ratio of CC50 for cytotoxicity against human MT4 cells assessed as reduction in cell viability to EC50 for antiviral activity against HIV-1 RES056 infected in human MT4 cells assessed as reduction in virus induced cytopathic effect; format: toxicity, cell-based; settings: read-out: Ratio CC50/EC50
[21] = as §1, with “Y181C” for “F227L/V106A double”; format: functional
[22] = as §1, with “Y188L” for “F227L/V106A double”; format: functional
[23] = Selectivity index, ratio of CC50 for cytotoxicity against human MT4 cells assessed as reduction in cell viability to EC50 for antiviral activity against NNRTI-resistant HIV-1 harboring Y188L mutant infected in human MT4 cells; format: toxicity, cell-based; settings: read-out: Ratio CC50/EC50
[24] = target: Human immunodeficiency virus type 1 reverse transcriptase (Human immunodeficiency virus 1, UniProt Q72547); assay: Inhibition of wild type HIV-1 reverse transcriptase assessed as reduction of biotin-dUTP incorporation into […] using ABTS as substrate incubated for 1 hrs by ELISA analysis
[25] = system: Human immunodeficiency virus 1; assay: Antiviral activity against HIV-1 IIIB infected in human MT4 cells assessed as reduction in virus induced cytopathic effect incubated for 5 days by MTT assay; format: functional, organism-based; settings: Human immunodeficiency virus 1, IIIB, MT4, 120 h

Structure (SMILES) | Ratio EC50 [1] | EC50 [2] [nM] | CC50 at 120 h [3] [nM] | EC50 [4] [nM] | Ratio EC50 [5] | selectivity ratio [6] | EC50 [7] [nM] | selectivity ratio [8] | EC50 [9] [nM] | EC50 [10] [nM] | selectivity ratio [11] | Ratio EC50 [12] | selectivity ratio [13] | selectivity ratio [14] | Ratio EC50 [15] | Ratio EC50 [16] | EC50 [17] [nM] | selectivity ratio [18] | EC50 [19] [nM] | selectivity ratio [20] | further results
Cc1cc(C#N)cc(C)c1Oc1nc(NC2CCN(Cc3ccc(C(N)=O)cc3)CC2)ncc1C(N)=O | 100.3 | 286 | > 250000 | 73 | 1.6 | > 659 | 45 | > 876 | 4520 | 17800 | > 5580 | 394.1 | > 5560 | > 55 | 1 | 8.4 | 380 | > 344 | 771 | > 14 | Ratio EC50 [21]: 6.3; Ratio EC50 [22]: 17.1; selectivity ratio [23]: > 324; IC50 [24]: 158 nM; EC50 [25]: 45 nM
Cc1cc(C#N)cc(C)c1Oc1nc(NC2CCN(Cc3ccc(B(O)O)cc3)CC2)ncc1C(N)=O | 26.2 | 159 | > 250000 | 133 | 3.2 | > 1520 | 45 | > 1570 | 1090 | 6630 | > 5550 | 159.1 | > 5990 | > 229 | 1.1 | 4 | 165 | > 187 | 209 | > 38 | Ratio EC50 [21]: 3.8; Ratio EC50 [22]: 5; selectivity ratio [23]: > 1190; IC50 [24]: 1040 nM; EC50 [25]: 42 nM
Cc1cc(C#N)cc(C)c1Oc1nc(NC2CCN(Cc3ccc(S(C)(=O)=O)cc3)CC2)ncc1C(N)=O | 57.4 | 34 | > 234000 | 11 | 1.9 | > 1560 | 5 | > 6790 | 327 | 3450 | > 4460 | 605.5 | > 41100 | > 716 | 0.9 | 26.2 | 149 | > 221 | 69 | > 68 | Ratio EC50 [21]: 6; Ratio EC50 [22]: 12.1; selectivity ratio [23]: > 3400; IC50 [24]: 122 nM; EC50 [25]: 6 nM
Cc1cc(C#N)cc(C)c1Oc1nc(NC2CCN(c3ccc(NS(N)(=O)=O)cc3)CC2)ncc1C(N)=O | 17.9 | 176 | 176000 | 370 | 11.3 | 1470 | 37 | 997 | 584 | 152000 | 4730 | 4648.8 | 5370 | 301 | 1.1 | 3.7 | 120 | 474 | 118 | 1 | Ratio EC50 [21]: 5.4; Ratio EC50 [22]: 3.6; selectivity ratio [23]: 1480; IC50 [24]: 941 nM; EC50 [25]: 33 nM
Cc1cc(C#N)cc(C)c1Oc1nc(NC2CCN(c3ccc(NS(=O)(=O)N(C)C)cc3)CC2)ncc1C(N)=O | 5.1 | 54 | 209000 | 139 | 21.1 | 8010 | 11 | 3910 | 34 | 15600 | 18700 | 2359.1 | 31700 | 6160 | 1.7 | 3.9 | 26 | 1500 | 33 | 13 | Ratio EC50 [21]: 8.1; Ratio EC50 [22]: 5; selectivity ratio [23]: 6350; IC50 [24]: 52 nM; EC50 [25]: 7 nM
Cc1cc(C#N)cc(C)c1Oc1nc(NC2CCN(c3ccc(N)cc3)CC2)ncc1C(N)=O | 26.1 | 252 | 183000 | 275 | 6.6 | 881 | 45 | 726 | 1080 | 4000 | 4120 | 96.4 | 4420 | 169 | 1.1 | 5 | 208 | 668 | 255 | 46 | Ratio EC50 [21]: 6.1; Ratio EC50 [22]: 6.2; selectivity ratio [23]: 718; IC50 [24]: 242 nM; EC50 [25]: 42 nM
Cc1cc(C#N)cc(C)c1Oc1nc(Nc2ccc(C#N)cc2)ncc1C(N)=O | 223.3 | 395 | 32200 | 168 | 14.7 | 459 | 50 | 82 | 2550 | 8960 | 650 | 785.5 | 2820 | 13 | 4.3 | 6.2 | 70 | 192 | 193 | 4 | Ratio EC50 [21]: 34.6; Ratio EC50 [22]: 16.9; selectivity ratio [23]: 167; IC50 [24]: 196 nM; EC50 [25]: 11 nM
Cc1cc(C#N)cc(C)c1Oc1nc(NC2CCN(c3ccc(NS(C)(=O)=O)cc3)CC2)ncc1C(N)=O | 40.3 | 259 | > 233000 | 247 | 12.7 | > 1040 | 154 | > 901 | 781 | 33200 | > 1510 | 1716.7 | > 12100 | > 299 | 8 | 11.6 | 226 | > 946 | 24 | > 7 | Ratio EC50 [21]: 13.4; Ratio EC50 [22]: 1.2; selectivity ratio [23]: > 9940; IC50 [24]: 200 nM; EC50 [25]: 19 nM
Cc1cc(C#N)cc(C)c1Oc1nc(NC2CCN(Cc3ccc(S(N)(=O)=O)cc3)CC2)ncc1C(N)=O | 9.5 | 295 | 198000 | 209 | 4.5 | 680 | 62 | 671 | 439 | 6120 | 3180 | 132.9 | 4300 | 451 | 1.3 | 6.3 | 291 | 946 | 234 | 32 | Ratio EC50 [21]: 6.4; Ratio EC50 [22]: 5.1; selectivity ratio [23]: 847; IC50 [24]: 163 nM; EC50 [25]: 46 nM
